Patent publication US9670217B2, “Process for preparing chlorins and their pharmaceutical uses” (UNIVERSIDADE DE COIMBRA, priority 2008, dated 2017)
Where two headings read alike, the source gives them in different places. Blank lines part the entries; values can stand above or below the compound they belong to.

Assays:
[1] = in toluene [12]; cited from earlier work
[2] = cited from earlier work
[3] = Absorption spectra (λmax, molar absorption coefficient); type: physicochemical; details: ethanol solutions
Description: (§1) Absorption spectra were recorded on a Shimadzu UV-2100 spectrophotometer or with a Carry 50 Biospectrophotometer (Varian, Mulgrave, USA). Fluorescence spectra were measured with a Spex Fluorolog 3 spectrophotometer, with correction for the wavelength dependence system (RCA C31034 photomultiplier), or with a PerkinElmer LS 50 spectrofluorimeter. Transient absorption spectra were measured with an Applied Photophysics LKS 60 nanosecond laser flash photolysis kinetic spectrometer, using the third harmonic of a Spectra-Physics Quanta Ray GCR 130-01 Nd/YAG laser for excitation, a Hamamatsu 1P28 photomultiplier and a Hewlett-Packard Infinium oscilloscope (1 GS/s). Flash photolysis measurements were made in the presence of air and in argon saturated solutions. Photoacoustic calorimetry employed the same Nd/YAG laser, a home-made front-face photoacoustic cell with a 2.25 MHz Panametrics transducer (model 5676) and a Tektronix DSA 601 transient recorder. Room-temperature singlet-oxygen phosphorescence was measured at 1270 nm with a Hamamatsu R5509-42 photomultiplier, cooled to 193 K in a liquid nitrogen chamber (Products for Research model PC176TSCE005), following laser excitation of aerated solutions at 355 nm, using an adapted Applied Photophysics spectrometer. Singlet oxygen emission at 1270 nm was also monitored with a liquid nitrogen-cooled germanium detector (North Coast) coupled to a Tectronix Digitizing scope (TDS 520B), following sample excitation with 5 ns laser pulses of the third harmonic (355 nm) generated by a Q-switched Nd:YAG laser (Continuum Surelite II).
(§2) This is indicative of little aggregation between the molecules, which exist mostly as monomers at these concentrations in the solvents studied. Table 1 presents typical red and infrared molar absorption coefficients (εmax) and wavelength maxima. The same table also presents representative fluorescence quantum yields (ΦF) of Luzitins. The fluorescence quantum yields decrease of these molecules decrease in the presence of chlorine substituents, a fingerprint of the heavy atom effect expected for such molecules.

[4] = n-octanol:water partition coefficient (shake-flask); type: physicochemical
Description: The n-octanol:water partition coefficients (CP) were measured using a minor modification of the shake-flask method described by some of us in the literature. The modification concerned the excitation of the absorption band ca 500 nm and the collection of the fluorescence in the red/IR region.

[5] = Singlet oxygen quantum yield and lifetime (1270 nm phosphorescence); type: physicochemical; details: air-saturated ethanol
Description: as §1
Singlet oxygen quantum yields in ethanol were obtained using a procedure described by some of us, using phenalenone as reference. The literature value for the singlet oxygen quantum yield obtained with phenalenone in ethanol is ΦΔ=0.95 [38].
All the singlet oxygen emissions measured in aerated ethanol solutions are very well described by mono-exponential decays, with typical singlet oxygen lifetimes (τΔ). The ΦΔ values of Table 1 were obtained by the procedures described above and are representative of these photosensitisers.
An air-saturated solution of Luzitin-Cl2Hep in ethanol with an absorbance ca. 0.2 at 355 nm was excited in a 1 cm quartz cuvette by a pulsed Nd:YAG laser, and the singlet oxygen emission was followed at 1270 nm, using the equipment and methods previously described. The intensity of the singlet oxygen phosphorescence was studied as a function of the laser intensity. A similar study was made with phenalenone in ethanol, at a concentration matching the absorbance of Luzitin-Cl2Hep at 355 nm. […] Various laser energies were employed and from the slopes of the energy dependence of singlet oxygen emission and the value of ΦΔ=0.95 for phenalenone in this ethanol, we obtained ΦΔ=0.78 for Luzitin-Cl2Hep.

[6] = Photobleaching under 748 nm diode laser irradiation; type: physicochemical; details: 100 mW laser irradiation at 748 nm
Description: The irradiation of bacteriochlorins in the photobleaching experiments employed the 748 nm Lynx diode laser. For animal studies we employed a costumer-made Hamamatsu diode laser, type LA0873. S/N M070301, which delivered 140 mW at 748 nm. This diode laser was controlled by a ThorLabs 500 mA ACC/APC Laser Diode Controller and in-house electronics. The laser energies of this and the other higher-energy lasers employed in this work were regularly checked with an Ophir model AN/2E laser power meter.
Photobleaching experiments were conducted in PBS. PBS:methanol (50:50) and methanol solutions. The solutions were irradiated in a cuvette with an optical path of 1 cm and the Lynx diode laser. The initial absorption of the solutions was ca. 0.8. The mechanism of photobleaching was assessed with the irradiation of the sensitizer using the Hamamatsu diode laser at 80 mW. The sensitizer was irradiated in PBS and in the presence of ascorbic acid or azide.
The chemical stability of the compounds was studied exposing them to light, air, and pH changes. The most significant degradation occurs for aerated solutions irradiated by light of the appropriate wavelength. In such circumstances the photobleaching of the compounds follows a first-order rate and is proportional to the energy of the incident laser light. In general, it was also observed that the photobleaching rate increases with the amount of water present in the solution. Bennett reported the photoconversion of Foscan® (m-THPC) and of the analogous bacteriochlorin (m-THPB) in PBS:methanol (50:50). Scherz reported the photoconversion of Tookad® in acetone and Triton-X:PBS [3]. For the purpose of comparing the photostability of Luzitins with that of Foscan® and Tookad®, we present in Table 2 the half-lives (t1/2) of representative drugs described herein, together with those of Foscan and Tookad® normalized for a laser power of 100 mW.
Luzitin-FMet was dissolved in PBS:methanol (2:3), transferred to a 1 cm quartz cell and its absorption spectrum was registered, FIG. 6. The quartz cell was then placed in the beam of the 748 nm Lynx diode laser, previously unfocused to have a beam diameter coincident with the window of the quartz cell. The laser power measured under these conditions was 28.8 mW. Every 5 minutes the irradiation was interrupted and a new absorption spectrum was registered. This procedure was followed for 65 minutes. The photobleaching follows the kinetics of a first-order reaction in the time window of the experiment. […] Whereas the bacteriochlorin peak at 743 nm is reduced from an absorbance of 1.128 to 0.337, the absorption of the chlorin only increases from 0.114 to 0.151. Taking into consideration the molar absorption coefficients of the compounds at these wavelengths, it is clear that whereas 70% of the bacteriochlorin is destroyed during the irradiation, only a few percent of chlorin are formed.
The half-lives of other bacteriochlorins normalized 100 mW laser irradiation at 748 nm are presented in […], together with the literature data for the photodegradation of Foscan® and Tookad® normalized for the same light intensity. It was also observed that the half-live to Luzitin-Cl is increased by a factor of 30 when the PBS solution of the photosensitizer is saturated with Argon, which reduces the oxygen concentration in the solution.

[7] = Triplet lifetime by laser flash photolysis; type: physicochemical; details: air-saturated ethanol
Description: as §1
The triplet-triplet absorption spectra and the triplet lifetimes of the photosensitisers (τT) were measured with the transient absorption spectra equipment described above, with excitation at 355 nm, where the solutions had absorbances between 0.25 and 0.30.
The triplet-triplet absorption spectra of the Luzitins measured in this work were in good agreement with that in the literature data for chlorins and bacteriochlorins. All triplet decays were clearly mono-exponential. […] Such values are consistent with diffusion limited energy transfer from the triplet state of the sensitizer to molecular oxygen through a charge-transfer interaction.

[8] = Fluorescence quantum yield; type: physicochemical; details: ethanol
Description: The absorptions of both reference and sample solutions were matched at ca 0.2 at the excitation wavelength of 515.5 nm, and the solutions were diluted by a factor 10 before collecting the fluorescence. The fluorescence quantum yield was obtained from the ratio of the fluorescence bands of the sample vs the reference, multiplied by the fluorescence quantum yield of the reference, 0.012 according to [12], after correction for the difference of refractive indexes of ethanol and toluene.
as §2

[9] = test system: human adenocarcinoma (HT29) cell line; details: HT29, irradiation of 25 J/cm^2 (US2003/6,569,846); read-out: dose causing 50% death rate; cited from earlier work
[10] = reference, in ethanol [38]; cited from earlier work

Structure (SMILES): Clc1cccc(Cl)c1-c1c2nc(c(-c3c(Cl)cccc3Cl)c3ccc([nH]3)c(-c3c(Cl)cccc3Cl)c3nc(c(-c4c(Cl)cccc4Cl)c4ccc1[nH]4)CC3)CC2 [Cl2PhB, 5,10,15,20-tetrakis(2,6-dichlorophenyl)bacteriochlorin]
fluorescence quantum yield of the reference [1]: 0.012

Structure (SMILES): Oc1cccc(-c2c3nc(c(-c4cccc(O)c4)c4ccc([nH]4)c(-c4cccc(O)c4)c4nc(c(-c5cccc(O)c5)c5ccc2[nH]5)CC4)C=C3)c1 [Foscan®, 5,10,15,20-tetrakis(3-hydroxyphenyl)chlorin]
t1/2 (half-life) ([2]; PBS:methanol, literature [46] normalized for a laser power of 100 mW): 8,582 sec

εmax [3]: 75,000 M^−1 cm^−1 | λmax [3]: 746 nm | log KOW (n-octanol:water partition coefficient) [4]: >4 | τΔ (singlet oxygen lifetime) [5]: 14.3 μsec | ΦΔ (singlet oxygen quantum yield) ([5]; phenalenone as reference): 0.63 | t1/2 (photobleaching half-life) ([6]; methanol): 164,105 sec | τT (air) triplet lifetime [7]: 295 nsec | ΦF (fluorescence quantum yield) [8]: 0.0082
Structure (SMILES): CCCCCCCNS(=O)(=O)c1ccc(Cl)c(-c2c3nc(c(-c4c(Cl)ccc(S(=O)(=O)NCCCCCCC)c4Cl)c4ccc([nH]4)c(-c4c(Cl)ccc(S(=O)(=O)NCCCCCCC)c4Cl)c4nc(c(-c5c(Cl)ccc(S(=O)(=O)NCCCCCCC)c5Cl)c5ccc2[nH]5)CC4)CC3)c1Cl [Luzitin-Cl2Hep, 5,10,15,20-tetrakis(2,6-dichloro-3-N-heptylsulfamoylphenyl)bacteriochlorin]

t1/2 (photobleaching half-life) ([6]; PBS): 58 s
Structure (SMILES): O=S(=O)(O)c1ccc(F)c(-c2c3nc(c(-c4cc(S(=O)(=O)O)ccc4F)c4ccc([nH]4)c(-c4cc(S(=O)(=O)O)ccc4F)c4nc(c(-c5cc(S(=O)(=O)O)ccc5F)c5ccc2[nH]5)CC4)CC3)c1 [Luzitin-F, 5,10,15,20-tetrakis(2-fluoro-5-sulfonylphenyl)bacteriochlorin]

λmax [3]: 742.5 nm | εmax ([3]; corrected for the chlorin content): 78,000^d) M^−1 cm^−1 | log KOW (n-octanol:water partition coefficient) [4]: >4 | t1/2 (photobleaching half-life) ([6]; methanol): 4,352 sec | ΦF (fluorescence quantum yield) [8]: 0.0585
Structure (SMILES): CN(C)S(=O)(=O)c1ccc(F)c(-c2c3nc(c(-c4cc(S(=O)(=O)N(C)C)ccc4F)c4ccc([nH]4)c(-c4cc(S(=O)(=O)N(C)C)ccc4F)c4nc(c(-c5cc(S(=O)(=O)N(C)C)ccc5F)c5ccc2[nH]5)CC4)CC3)c1 [Luzitin-FMet2, 5,10,15,20-tetrakis(2-fluoro-5-N,N-dimethysulfamoylphenyl)bacteriochlorin]

Structure (SMILES): CC[C@H]1c2cc3[n-]c4c(c3C)C(=O)[C@H](C(=O)OC)c4c3nc(cc4[n-]c(cc(n2)[C@@H]1C)c(C(C)=O)c4C)[C@@H](C)[C@@H]3CCC(=O)O.[Pd+2] [Tookad®]
IC50 [9]: 48 µM | t1/2 (half-life) ([2]; buffer): 1.56 s

Structure (SMILES): O=C1C=Cc2cccc3cccc1c23 [phenalenone]
ΦΔ (singlet oxygen quantum yield) [10]: 0.95
